From ChEMBL document CHEMBL1135924, “Structure-based design and synthesis of 2-benzylidene-benzofuran-3-ones as flavopiridol mimics” (J Med Chem, 2002)

Experiments:
[1] = biological target: Vascular endothelial growth factor receptor 2 (Homo sapiens) (UniProt P35968); test: Inhibition of Vascular endothelial growth factor receptor 2 (VEGF-KDR) at 10 uM
[2] = biological target: Cyclin-dependent kinase 2 (Homo sapiens, UniProt P24941); test: Inhibition of cyclin A activated Cyclin-dependent kinase 2 (CDK2)
[3] = biological target: Glycogen synthase kinase-3 (Homo sapiens, UniProt P49840+P49841); test: inhibition of Glycogen synthase kinase-3; assay type: protein assay
[4] = biological target: Epidermal growth factor receptor (Homo sapiens) (UniProt P00533); test: Inhibition of Epidermal growth factor receptor at 10 uM
Epidermal growth factor receptor (Homo sapiens), sequence (P00533 whole entry): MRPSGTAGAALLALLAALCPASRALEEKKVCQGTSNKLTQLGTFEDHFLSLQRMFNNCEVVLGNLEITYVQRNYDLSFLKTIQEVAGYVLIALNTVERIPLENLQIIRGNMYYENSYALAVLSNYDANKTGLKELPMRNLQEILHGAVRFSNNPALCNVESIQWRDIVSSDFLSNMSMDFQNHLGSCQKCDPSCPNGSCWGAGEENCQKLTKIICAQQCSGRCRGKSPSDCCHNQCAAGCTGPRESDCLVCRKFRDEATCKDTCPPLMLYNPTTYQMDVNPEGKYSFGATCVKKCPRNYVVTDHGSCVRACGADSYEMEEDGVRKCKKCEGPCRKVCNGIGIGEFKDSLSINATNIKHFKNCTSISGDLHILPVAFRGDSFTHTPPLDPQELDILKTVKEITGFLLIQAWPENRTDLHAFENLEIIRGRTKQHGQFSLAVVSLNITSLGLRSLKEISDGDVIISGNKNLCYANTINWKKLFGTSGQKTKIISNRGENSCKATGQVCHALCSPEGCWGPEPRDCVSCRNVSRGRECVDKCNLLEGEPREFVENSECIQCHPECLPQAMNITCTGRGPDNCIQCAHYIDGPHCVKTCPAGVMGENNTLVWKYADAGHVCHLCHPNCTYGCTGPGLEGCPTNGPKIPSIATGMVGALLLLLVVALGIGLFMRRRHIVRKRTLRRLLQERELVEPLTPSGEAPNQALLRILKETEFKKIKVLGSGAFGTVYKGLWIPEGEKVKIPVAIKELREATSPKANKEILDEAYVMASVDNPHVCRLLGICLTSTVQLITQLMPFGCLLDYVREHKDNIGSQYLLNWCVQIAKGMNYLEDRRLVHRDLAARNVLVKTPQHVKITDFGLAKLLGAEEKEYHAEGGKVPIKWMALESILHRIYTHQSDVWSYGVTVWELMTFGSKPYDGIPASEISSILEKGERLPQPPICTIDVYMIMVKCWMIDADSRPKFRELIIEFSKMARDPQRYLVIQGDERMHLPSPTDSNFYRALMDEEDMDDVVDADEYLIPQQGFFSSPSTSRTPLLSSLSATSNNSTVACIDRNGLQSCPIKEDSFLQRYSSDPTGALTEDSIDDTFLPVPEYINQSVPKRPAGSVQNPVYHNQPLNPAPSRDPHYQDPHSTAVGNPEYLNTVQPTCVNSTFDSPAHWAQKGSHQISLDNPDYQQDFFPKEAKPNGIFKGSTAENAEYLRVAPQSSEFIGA

[5] = biological target: T1, Protein kinase C alpha type (Homo sapiens, UniProt P17252); test: Inhibition of Protein kinase C alpha at 10 uM
[6] = biological target: Cyclin-dependent kinase 4 (Homo sapiens, UniProt P11802); test: Inhibition of cyclin D1 activated Cyclin-dependent kinase 4 (CDK4)
Cyclin-dependent kinase 4, sequence (P11802 whole entry): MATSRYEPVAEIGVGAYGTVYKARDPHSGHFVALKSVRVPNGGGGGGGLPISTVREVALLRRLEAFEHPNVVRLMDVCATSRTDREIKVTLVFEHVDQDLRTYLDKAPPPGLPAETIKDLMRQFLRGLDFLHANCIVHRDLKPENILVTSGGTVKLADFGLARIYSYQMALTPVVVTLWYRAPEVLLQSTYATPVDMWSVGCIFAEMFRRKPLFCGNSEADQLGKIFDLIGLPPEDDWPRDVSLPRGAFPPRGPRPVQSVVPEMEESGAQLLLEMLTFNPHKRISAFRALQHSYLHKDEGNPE

[7] = biological target: Cyclin-dependent kinase 1 (Homo sapiens, UniProt P06493); test: Inhibition of cyclin B activated Cyclin-dependent kinase 1 (CDK1)
Cyclin-dependent kinase 1, sequence (P06493 whole entry): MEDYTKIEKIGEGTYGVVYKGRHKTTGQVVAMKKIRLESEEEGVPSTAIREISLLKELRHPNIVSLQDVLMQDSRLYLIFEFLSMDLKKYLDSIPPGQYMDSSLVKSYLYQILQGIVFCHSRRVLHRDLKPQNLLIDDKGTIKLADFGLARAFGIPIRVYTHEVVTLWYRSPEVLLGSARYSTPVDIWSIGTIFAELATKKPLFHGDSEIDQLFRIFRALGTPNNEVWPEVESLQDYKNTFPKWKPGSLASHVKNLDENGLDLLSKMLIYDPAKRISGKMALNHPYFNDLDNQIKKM

HCT-116 = test: Inhibition of HCT116 (transformed colon) cell proliferation; assay type: functional, cell-based; settings: Homo sapiens
[8] = biological target: T1, Protein kinase C alpha type; test: Inhibition of Protein kinase C alpha

Vascular endothelial growth factor receptor 2 (Homo sapiens), sequence (P35968 whole entry): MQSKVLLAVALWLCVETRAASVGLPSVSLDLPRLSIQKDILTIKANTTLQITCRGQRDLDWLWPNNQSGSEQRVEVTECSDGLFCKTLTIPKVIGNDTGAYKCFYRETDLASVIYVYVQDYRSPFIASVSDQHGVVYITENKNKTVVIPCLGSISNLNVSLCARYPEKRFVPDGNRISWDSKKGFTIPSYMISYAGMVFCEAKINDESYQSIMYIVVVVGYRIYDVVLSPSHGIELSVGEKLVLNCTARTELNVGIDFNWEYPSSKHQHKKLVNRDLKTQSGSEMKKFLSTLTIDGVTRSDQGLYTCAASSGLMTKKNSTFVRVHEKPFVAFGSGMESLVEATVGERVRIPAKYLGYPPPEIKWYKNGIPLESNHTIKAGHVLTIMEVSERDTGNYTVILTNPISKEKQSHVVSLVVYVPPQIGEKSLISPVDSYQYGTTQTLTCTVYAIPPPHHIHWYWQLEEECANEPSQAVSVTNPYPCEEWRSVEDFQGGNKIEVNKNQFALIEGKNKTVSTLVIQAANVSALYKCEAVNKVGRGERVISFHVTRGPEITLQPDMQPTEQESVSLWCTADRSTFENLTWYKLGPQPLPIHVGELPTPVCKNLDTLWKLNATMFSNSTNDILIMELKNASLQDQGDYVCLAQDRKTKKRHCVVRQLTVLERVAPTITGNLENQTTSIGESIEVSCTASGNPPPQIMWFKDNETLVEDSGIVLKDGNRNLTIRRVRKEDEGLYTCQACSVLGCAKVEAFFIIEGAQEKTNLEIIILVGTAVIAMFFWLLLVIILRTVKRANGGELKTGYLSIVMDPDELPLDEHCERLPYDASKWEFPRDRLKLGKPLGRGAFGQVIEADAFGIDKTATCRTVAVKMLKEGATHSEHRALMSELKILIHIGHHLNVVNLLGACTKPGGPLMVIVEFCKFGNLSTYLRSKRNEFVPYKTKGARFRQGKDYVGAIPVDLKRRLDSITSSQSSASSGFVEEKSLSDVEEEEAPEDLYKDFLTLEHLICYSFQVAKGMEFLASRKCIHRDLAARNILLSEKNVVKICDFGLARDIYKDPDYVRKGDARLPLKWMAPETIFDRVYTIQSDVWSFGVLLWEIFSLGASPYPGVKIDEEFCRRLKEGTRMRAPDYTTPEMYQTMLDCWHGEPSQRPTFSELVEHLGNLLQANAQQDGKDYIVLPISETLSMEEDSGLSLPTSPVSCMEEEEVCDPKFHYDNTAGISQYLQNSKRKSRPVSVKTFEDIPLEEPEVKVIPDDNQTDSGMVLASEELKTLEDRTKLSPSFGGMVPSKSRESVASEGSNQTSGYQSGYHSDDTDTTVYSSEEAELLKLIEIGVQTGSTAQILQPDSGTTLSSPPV

IC50 [8] [nM]	Compound	inhibition [1] [%]	IC50 [2] [nM]	IC50 [3] [nM]	inhibition [4] [%]	inhibition [5] [%]	IC50 [6] [nM]	IC50 [7] [nM]	IC50 (HCT-116) [nM]
–	CN1CCC(c2c(O)cc(O)c3c2O/C(=C\c2ccc(S(N)(=O)=O)cc2)C3=O)CC1	25	30	3700	36	42	1870	9	> 50000
–	CN1CCC(c2c(O)cc(O)c3c2O/C(=C\c2ccc(N4CCN(C)CC4)cc2)C3=O)CC1	25	2980	1750	29	21	1920	800	24800
–	CN1CCC(c2c(O)cc(O)c3c2O/C(=C\c2ccccc2)C3=O)CC1	2	1280	4200	38	19	4410	110	> 50000
22000	CN1CCC(c2c(O)cc(O)c3c2O/C(=C\c2ccc([N+](=O)[O-])cc2)C3=O)CC1	37	310	4800	43	–	2210	–	35600
–	CN1CCC(c2c(O)cc(O)c3c2O/C(=C\c2ccccc2Cl)C3=O)CC1	17	3970	10000	–	22	25300	600	20100
